Results: patent US20090156518A1, “STABLE PHARMACEUTICAL COMPOSITION COMPRISING BETA-LACTAM ANTIBIOTIC AND BUFFER” (priority 2006, published 2009)
Marks after values point to notes of the source that are not given here.

Assay: amounts of β-lactam antibiotic, β-lactamase inhibitor (C18 reverse-phase LC, UV-VIS) and aminoglycoside (HPLC-ELSD) in solution over time
Type: physicochemical

With `CC1(C)[C@H](C(=O)O)N2C(=O)C[C@H]2S1(=O)=O` [Sulbactam sodium] the “amount of component as percentage with respect to the amount at the initial time” value (“amount of component as percentage” for short) (Example 4: cefoperazone sodium 4 g, sulbactam sodium 0.5 g, gentamicin 80 mg, citrate pH 6.75, 200 mL water, room temperature, Time 0 h) was 101.4%, the “amount of component as percentage” value (Example 4: cefoperazone sodium 4 g, sulbactam sodium 0.5 g, gentamicin 80 mg, citrate pH 6.75, 200 mL water, room temperature, Time 1 h) was 101.4% and the “amount of component as percentage” value (Example 4: cefoperazone sodium 4 g, sulbactam sodium 0.5 g, gentamicin 80 mg, citrate pH 6.75, 200 mL water, room temperature, Time 2 h) was 101.5%. For the same compound, the “amount of component as percentage” value (Example 4: cefoperazone sodium 4 g, sulbactam sodium 0.5 g, gentamicin 80 mg, citrate pH 6.75, 200 mL water, room temperature, Time 4 h) was 109.7%, the “amount of component as percentage” value (Example 4: cefoperazone sodium 4 g, sulbactam sodium 0.5 g, gentamicin 80 mg, citrate pH 6.75, 200 mL water, room temperature, Time 6 h) was 103.2% and the “amount of component as percentage” value (Example 5: freeze-dried cefoperazone sodium 4 g, sulbactam sodium 0.5 g, citrate pH 6.75, + amikacin sulfate 500 mg, 7 days 0° C., dissolved in 100 mL water, Time 0 h) was 101.4%. The “amount of component as percentage” value (Example 5: freeze-dried cefoperazone sodium 4 g, sulbactam sodium 0.5 g, citrate pH 6.75, + amikacin sulfate 500 mg, 7 days 0° C., dissolved in 100 mL water, Time 1 h) was 101.4%, the “amount of component as percentage” value (Example 5: freeze-dried cefoperazone sodium 4 g, sulbactam sodium 0.5 g, citrate pH 6.75, + amikacin sulfate 500 mg, 7 days 0° C., dissolved in 100 mL water, Time 2 h) was 101.5% and the “amount of component as percentage” value (Example 5: freeze-dried cefoperazone sodium 4 g, sulbactam sodium 0.5 g, citrate pH 6.75, + amikacin sulfate 500 mg, 7 days 0° C., dissolved in 100 mL water, Time 4 h) was 109.7%. The “amount of component as percentage” value (Example 5: freeze-dried cefoperazone sodium 4 g, sulbactam sodium 0.5 g, citrate pH 6.75, + amikacin sulfate 500 mg, 7 days 0° C., dissolved in 100 mL water, Time 6 h) was 103.2%, the “amount of component as percentage” value (Example 6: freeze-dried cefoperazone sodium 4 g, sulbactam sodium 1 g, citrate pH 6.75, + etimicin sulfate 200 mg, 7 days 0° C., dissolved in 100 mL water, Time 0 h) was 99.62% and the “amount of component as percentage” value (Example 6: freeze-dried cefoperazone sodium 4 g, sulbactam sodium 1 g, citrate pH 6.75, + etimicin sulfate 200 mg, 7 days 0° C., dissolved in 100 mL water, Time 1 h) was 100.4%. For the same compound, the “amount of component as percentage” value (Example 6: freeze-dried cefoperazone sodium 4 g, sulbactam sodium 1 g, citrate pH 6.75, + etimicin sulfate 200 mg, 7 days 0° C., dissolved in 100 mL water, Time 2 h) was 100.2%, the “amount of component as percentage” value (Example 6: freeze-dried cefoperazone sodium 4 g, sulbactam sodium 1 g, citrate pH 6.75, + etimicin sulfate 200 mg, 7 days 0° C., dissolved in 100 mL water, Time 4 h) was 100.2% and the “amount of component as percentage” value (Example 7: ceftriaxone sodium 4 g, sulbactam sodium 1 g, gentamicin sulfate 80 mg, citrate pH 6.75, 200 mL water, room temperature (22° C.), Time 0 h) was 96.84%. For the same compound, the “amount of component as percentage” value (Example 7: ceftriaxone sodium 4 g, sulbactam sodium 1 g, gentamicin sulfate 80 mg, citrate pH 6.75, 200 mL water, room temperature (22° C.), Time 1 h) was 94.43%, the “amount of component as percentage” value (Example 7: ceftriaxone sodium 4 g, sulbactam sodium 1 g, gentamicin sulfate 80 mg, citrate pH 6.75, 200 mL water, room temperature (22° C.), Time 2 h) was 93.35% and the “amount of component as percentage” value (Example 7: ceftriaxone sodium 4 g, sulbactam sodium 1 g, gentamicin sulfate 80 mg, citrate pH 6.75, 200 mL water, room temperature (22° C.), Time 4 h) was 93.23%. The “amount of component as percentage” value (Example 7: ceftriaxone sodium 4 g, sulbactam sodium 1 g, gentamicin sulfate 80 mg, citrate pH 6.75, 200 mL water, room temperature (22° C.), Time 6 h) was 92.13%, the “amount of component as percentage” value (Example 7: ceftriaxone sodium 4 g, sulbactam sodium 1 g, gentamicin sulfate 80 mg, citrate pH 6.75, 200 mL water, room temperature (22° C.), Time 8 h) was 93.38% and the “amount of component as percentage” value (Example 10: mezlocillin sodium 2 g, sulbactam sodium 0.5 g, etimicin sulfate 200 mg, citrate pH 6.5, 200 mL water, room temperature, Time 0 h) was 98.07%. For the same compound, the “amount of component as percentage” value (Example 10: mezlocillin sodium 2 g, sulbactam sodium 0.5 g, etimicin sulfate 200 mg, citrate pH 6.5, 200 mL water, room temperature, Time 1 h) was 98.13%, the “amount of component as percentage” value (Example 10: mezlocillin sodium 2 g, sulbactam sodium 0.5 g, etimicin sulfate 200 mg, citrate pH 6.5, 200 mL water, room temperature, Time 2 h) was 72.96% and the “amount of component as percentage” value (Example 10: mezlocillin sodium 2 g, sulbactam sodium 0.5 g, etimicin sulfate 200 mg, citrate pH 6.5, 200 mL water, room temperature, Time 4 h) was 95.16%. For the same compound, the “amount of component as percentage” value (Example 10: mezlocillin sodium 2 g, sulbactam sodium 0.5 g, etimicin sulfate 200 mg, citrate pH 6.5, 200 mL water, room temperature, Time 6 h) was 99.65%, the “amount of component as percentage” value (Example 10: mezlocillin sodium 2 g, sulbactam sodium 0.5 g, etimicin sulfate 200 mg, citrate pH 6.5, 200 mL water, room temperature, Time 8 h) was 104.9% and the “amount of component as percentage” value (Example 11: freeze-dried mezlocillin sodium, sulbactam sodium, citrate pH 6.5, 7 days 0° C., in 100 mL 5% fructose + etimicin sulfate 200 mg, Time 0 h) was 114.3%. The “amount of component as percentage” value (Example 11: freeze-dried mezlocillin sodium, sulbactam sodium, citrate pH 6.5, 7 days 0° C., in 100 mL 5% fructose + etimicin sulfate 200 mg, Time 1 h) was 95.83%, the “amount of component as percentage” value (Example 11: freeze-dried mezlocillin sodium, sulbactam sodium, citrate pH 6.5, 7 days 0° C., in 100 mL 5% fructose + etimicin sulfate 200 mg, Time 2 h) was 93.75% and the “amount of component as percentage” value (Example 11: freeze-dried mezlocillin sodium, sulbactam sodium, citrate pH 6.5, 7 days 0° C., in 100 mL 5% fructose + etimicin sulfate 200 mg, Time 4 h) was 93.78%. The “amount of component as percentage” value (Example 11: freeze-dried mezlocillin sodium, sulbactam sodium, citrate pH 6.5, 7 days 0° C., in 100 mL 5% fructose + etimicin sulfate 200 mg, Time 6 h) was 95.65%, the “amount of component as percentage” value (Example 11: freeze-dried mezlocillin sodium, sulbactam sodium, citrate pH 6.5, 7 days 0° C., in 100 mL 5% fructose + etimicin sulfate 200 mg, Time 8 h) was 101.0% and the “amount of component as percentage” value (Example 14: freeze-dried cefoperazone sodium 4 g, sulbactam sodium 2 g, citrate pH 6.75, 7 days 0° C., in 100 mL water, 10 mL + gentamicin sulfate 16 mg, room temperature, Time 0 h) was 92.44%. For the same compound, the “amount of component as percentage” value (Example 14: freeze-dried cefoperazone sodium 4 g, sulbactam sodium 2 g, citrate pH 6.75, 7 days 0° C., in 100 mL water, 10 mL + gentamicin sulfate 16 mg, room temperature, Time 1 h) was 91.27%, the “amount of component as percentage” value (Example 14: freeze-dried cefoperazone sodium 4 g, sulbactam sodium 2 g, citrate pH 6.75, 7 days 0° C., in 100 mL water, 10 mL + gentamicin sulfate 16 mg, room temperature, Time 2 h) was 90.78% and the “amount of component as percentage” value (Example 14: freeze-dried cefoperazone sodium 4 g, sulbactam sodium 2 g, citrate pH 6.75, 7 days 0° C., in 100 mL water, 10 mL + gentamicin sulfate 16 mg, room temperature, Time 4 h) was 88.38* %. For the same compound, the “amount of component as percentage” value (Example 14: freeze-dried cefoperazone sodium 4 g, sulbactam sodium 2 g, citrate pH 6.75, 7 days 0° C., in 100 mL water, 10 mL + gentamicin sulfate 16 mg, room temperature, Time 6 h) was 86.86* %, the “amount of component as percentage” value (Example 15: freeze-dried cefoperazone sodium 4 g, sulbactam sodium 4 g, citrate pH 6.75, 7 days 0° C., in 100 mL water, 10 mL + gentamicin sulfate 16 mg, room temperature, Time 0 h) was 99.50% and the “amount of component as percentage” value (Example 15: freeze-dried cefoperazone sodium 4 g, sulbactam sodium 4 g, citrate pH 6.75, 7 days 0° C., in 100 mL water, 10 mL + gentamicin sulfate 16 mg, room temperature, Time 1 h) was 96.28%. The “amount of component as percentage” value (Example 15: freeze-dried cefoperazone sodium 4 g, sulbactam sodium 4 g, citrate pH 6.75, 7 days 0° C., in 100 mL water, 10 mL + gentamicin sulfate 16 mg, room temperature, Time 2 h) was 102.5%, the “amount of component as percentage” value (Example 15: freeze-dried cefoperazone sodium 4 g, sulbactam sodium 4 g, citrate pH 6.75, 7 days 0° C., in 100 mL water, 10 mL + gentamicin sulfate 16 mg, room temperature, Time 4 h) was 95.78* % and the “amount of component as percentage” value (Example 15: freeze-dried cefoperazone sodium 4 g, sulbactam sodium 4 g, citrate pH 6.75, 7 days 0° C., in 100 mL water, 10 mL + gentamicin sulfate 16 mg, room temperature, Time 6 h) was 70.74* %. For the same compound, the “amount of component as percentage” value (Example 17: freeze-dried cefoperazone sodium 4 g, sulbactam sodium 1 g, citrate pH 6.75, 7 days 0° C., in 100 mL water, 10 mL + amikacin sulfate 40 mg, room temperature, Time 0 h) was 105.6%, the “amount of component as percentage” value (Example 17: freeze-dried cefoperazone sodium 4 g, sulbactam sodium 1 g, citrate pH 6.75, 7 days 0° C., in 100 mL water, 10 mL + amikacin sulfate 40 mg, room temperature, Time 1 h) was 112.2% and the “amount of component as percentage” value (Example 17: freeze-dried cefoperazone sodium 4 g, sulbactam sodium 1 g, citrate pH 6.75, 7 days 0° C., in 100 mL water, 10 mL + amikacin sulfate 40 mg, room temperature, Time 2 h) was 112.6%. The “amount of component as percentage” value (Example 17: freeze-dried cefoperazone sodium 4 g, sulbactam sodium 1 g, citrate pH 6.75, 7 days 0° C., in 100 mL water, 10 mL + amikacin sulfate 40 mg, room temperature, Time 4 h) was 118.5%, the “amount of component as percentage” value (Example 17: freeze-dried cefoperazone sodium 4 g, sulbactam sodium 1 g, citrate pH 6.75, 7 days 0° C., in 100 mL water, 10 mL + amikacin sulfate 40 mg, room temperature, Time 6 h) was 123.3% and the “amount of component as percentage” value (Example 17: freeze-dried cefoperazone sodium 4 g, sulbactam sodium 1 g, citrate pH 6.75, 7 days 0° C., in 100 mL water, 10 mL + amikacin sulfate 40 mg, room temperature, Time 8 h) was 127.1%. The “amount of component as percentage” value (Example 19: ceftriaxone sodium 2 g, sulbactam sodium 2 g, gentamicin sulfate 160 mg, citrate pH 6.75, 200 mL water, room temperature, Time 0 h) was 96.84%, the “amount of component as percentage” value (Example 19: ceftriaxone sodium 2 g, sulbactam sodium 2 g, gentamicin sulfate 160 mg, citrate pH 6.75, 200 mL water, room temperature, Time 1 h) was 94.43% and the “amount of component as percentage” value (Example 19: ceftriaxone sodium 2 g, sulbactam sodium 2 g, gentamicin sulfate 160 mg, citrate pH 6.75, 200 mL water, room temperature, Time 2 h) was 93.35%. The “amount of component as percentage” value (Example 19: ceftriaxone sodium 2 g, sulbactam sodium 2 g, gentamicin sulfate 160 mg, citrate pH 6.75, 200 mL water, room temperature, Time 4 h) was 93.23%, the “amount of component as percentage” value (Example 19: ceftriaxone sodium 2 g, sulbactam sodium 2 g, gentamicin sulfate 160 mg, citrate pH 6.75, 200 mL water, room temperature, Time 6 h) was 92.13% and the “amount of component as percentage” value (Example 19: ceftriaxone sodium 2 g, sulbactam sodium 2 g, gentamicin sulfate 160 mg, citrate pH 6.75, 200 mL water, room temperature, Time 8 h) was 93.38%.
